According to patent US6316033A, “Compositions for treatment of antibiotic-resistant gram-positive bacterial infections and methods for using and preparing the same” (Marco Polo Technologies, priority 1999, dated 2001):
Converted amounts (≈) assume the structure as drawn. Read-outs that look alike come from different tables or passages of the source. Values belong to the compound of their own block, whether it stands above or below them.

What was measured:
[1] = test system: wild-type Staphylococcus aureus (ATCC 29212); experiment: Disk sensitivity assay, wild-type S. aureus; assay type: cell-based; conditions: for zone of inhibition at 2000 µg/mL: Staphylococcus aureus, ATCC29212, 18 h
Procedure: The antimicrobial activities of the total organic solvent extract from A. euchroma, obtained as described in Example 1 above, and the red colored active fraction from A. euchroma, obtained as described in Example 2 above, were evaluated using a disk sensitivity assay.
(§1) More specifically, wild-type Staphylococcus aureus (ATCC 29212) was grown in Luria broth (L-broth) at 37° C. to exponential phase, diluted to 1.0×10^7 bacteria/ml, and mixed with minimal medium (M63, +salt and glucose) with 0.15% (w/v) soft agar. The mixture was poured over a minimal agar plate (minimal medium +0.7% (w/v) agar). Filter paper disks (6.0 mm in diameter) were then impregnated with 20 μl of total organic solvent extract from A. euchroma (containing 10 mg/ml of naphthaquinone compounds in dimethyl formamide (DMF)); 20 μl of total organic solvent extract from L. erythrorhizon (containing 10 mg/ml of naphthaquinone compounds in DMF); 20 μl of the red colored active fraction from A. euchroma isolated using TLC (10 mg/ml in DMF); 20 μl of the red colored active fraction from A. euchroma isolated using the silica gel column (10 mg/ml in DMF); or 20 μl of DMF as control, and placed on the surface of the agar plates. The plates were then incubated at 37° C. for 18 hrs.
(§2) The disk assay described above was carried out on wild-type S. aureus and antibiotic-resistant S. aureus using 20 μl of the red colored active fraction from A. euchroma isolated using TLC (10 mg/ml in DMF); 20 μl of the red colored active fraction from A. euchroma isolated using the silica gel column (10 mg/ml in DMF); or 20 μl of DMF as a control.
(§3) The anti-microbial activities of the 6 individual components were determined using the disk sensitivity assay described above.
(§4) More specifically, filter paper disks impregnated with 20 μl of each individual component (2.0 mg/ml) were placed on top of the agar plate. The plates were developed as described in Example 4 above.

[2] = test system: antibiotic-resistant Staphylococcus aureus (ATCC 27695); experiment: Disk sensitivity assay, antibiotic-resistant S. aureus; assay type: cell-based; conditions: for zone of inhibition at 2000 µg/mL: Staphylococcus aureus, ATCC27695, 18 h
Procedure: as §1
The disk assay described above was carried out using antibiotic-resistant Staphylococcus aureus (ATCC 27695), and 20 μl of the total organic solvent extract from A. euchroma (containing 10 mg/ml of naphthaquinone compounds in DMF); 20 μl of the total organic solvent extract from L. erythrorhizon (containing 10 mg/ml of naphthaquinone compounds in DMF); or 20 μl of DMF as a control.
as §2, §3, §4

[3] = test system: wild-type Staphylococcus aureus; experiment: Minimum inhibitory concentration in liquid culture, wild-type strain; assay type: cell-based
Procedure: (§5) Next, the MIC for the total organic solvent extract from A. euchroma, obtained as described in Example 1 above, against wild-type Staphylococcus aureus and antibiotic-resistant Staphylococcus aureus were determined in liquid culture using L-broth with different amounts of total organic solvent extract, and compared to the MIC for common antibiotics.
(§6) More specifically, different concentrations of total organic solvent extract was added to 1.0 ml of L-broth, and inoculated with 50 μl of an overnight growth of bacteria (about 1.0×10^8 cells). The resulting samples were incubated overnight at 37° C. The MIC was then determined by measuring the minimal concentration of extract needed to inhibit the growth of the bacteria.
The MIC of the six individual components were determined using wild-type S. aureus and the liquid culture method as described above.

[4] = literature (Tanaka et al; Kyogoku et al; Honda et al); cited from earlier work
[5] = literature (Tanaka et al, 1986); cited from earlier work
[6] = test system: antibiotic-resistant Staphylococcus aureus clinical isolates; experiment: Antibiotic resistance (MIC) of S. aureus clinical isolates; assay type: cell-based
[7] = test system: antibiotic-resistant Staphylococcus aureus; experiment: Minimum inhibitory concentration in liquid culture, antibiotic-resistant strain; assay type: cell-based; conditions: read-out: Minimum Inhibitory Concentration (MIC)
Procedure: as §5, §6

[8] = wild-type S. aureus, liquid culture, Table 10
[9] = Wild-Type Strain, individual components, 20 μl of 2.0 mg/ml, Table 9
[10] = Antibiotic-resistant Strain, individual components, 20 μl of 2.0 mg/ml, Table 9
[11] = read-out: Antibiotic Resistance (MIC), Strain 3-44
[12] = Staphylococcus aureus, read-out: Minimum Inhibitory Concentration (MIC)
[13] = Strain 3-16, read-out: Antibiotic Resistance (MIC)
[14] = Strain 3-20, read-out: Antibiotic Resistance (MIC)
[15] = Strain 5-37, read-out: Antibiotic Resistance (MIC)
[16] = Strain 5-38, read-out: Antibiotic Resistance (MIC)
[17] = Strain 5-39, read-out: Antibiotic Resistance (MIC)
[18] = Strain 5-47, read-out: Antibiotic Resistance (MIC)
[19] = Wild-Type Strain, individual components, 20 μl of 2.0 mg/ml, Table 9, read-out: Zone of inhibition
[20] = Antibiotic-resistant Strain, individual components, 20 μl of 2.0 mg/ml, Table 9, read-out: Zone of inhibition
[21] = Staphylococcus aureus, wild-type S. aureus, liquid culture, Table 10, read-out: MIC

SMILES: CC(C)=CC[C@@H](O)C1=CC(=O)c2c(O)ccc(O)c2C1=O (single isomer, unassigned) [Peak I, Shikonin]
zone of inhibition at 2000 µg/mL [1]: 18 mm
appearance of zone of inhibition ([1]; wild-type S. aureus, individual components, 2.0 mg/ml): the inhibition was not complete, as shown by an opaque, rather than a clear zone
zone of inhibition at 2000 µg/mL [2]: 18 mm
appearance of zone of inhibition ([2]; antibiotic-resistant S. aureus, individual components, 2.0 mg/ml): the inhibition was not complete, as shown by an opaque, rather than a clear zone
MIC ([3]; Staphylococcus aureus): 4 to 5 µg/mL (≈ 13.9 to 17.3 µM)
antimicrobial activity [4]: antimicrobial activity
anti-inflammatory activity [5]: anti-inflammatory activity

SMILES: CC(=O)O[C@H](CC=C(C)C)C1=CC(=O)c2c(O)ccc(O)c2C1=O (single isomer, unassigned) [Peak II, Acetyl shikonin]
zone of inhibition at 2000 µg/mL [1]: 10 mm
zone of inhibition at 2000 µg/mL [2]: 17 mm
MIC ([3]; Staphylococcus aureus): 0.5 to 1 µg/mL (≈ 1.51 to 3.03 µM)
activity ranking among the individual components (MIC) [3, 8]: the most active

SMILES: CC(C)=CC[C@@H](OC(=O)CC(C)=C(C)C)C1=CC(=O)c2c(O)ccc(O)c2C1=O (single isomer, unassigned; peak iii) [Peak III, Teracryl shikonin]
Zone of inhibition [1, 9]: 7.5 mm
Zone of inhibition [2, 10]: 7.0 mm
MIC [3, 8]: 4.0 to 6.0 µg/mL

SMILES: CC(C)=CC[C@@H](OC(=O)CC(C)(C)O)C1=CC(=O)c2c(O)ccc(O)c2C1=O (single isomer, unassigned; peak iv) [Peak IV, Hydroxyisovaleryl shikonin]
Zone of inhibition [1, 9]: 7.0 mm
Zone of inhibition [2, 10]: 7.0 mm
MIC [3, 8]: 4.0 to 6.0 µg/mL

SMILES: CC[C@H]1OC(=O)[C@H](C)[C@@H](O[C@H]2C[C@@](C)(OC)[C@@H](O)[C@H](C)O2)[C@H](C)[C@@H](O[C@@H]2O[C@H](C)C[C@H](N(C)C)[C@H]2O)[C@](C)(O)C[C@@H](C)C(=O)[C@H](C)[C@@H](O)[C@]1(C)O [Erythromycin]
MIC [6, 11]: > 32 µg/mL
MIC ([6]; read-out: Antibiotic Resistance (MIC), Strain 5-75): > 32 µg/mL
MIC ([6]; read-out: Antibiotic Resistance (MIC), Strain 5-76): > 32 µg/mL
MIC ([6]; read-out: Antibiotic Resistance (MIC), Strain 5-77): > 32 µg/mL
MIC ([6]; read-out: Antibiotic Resistance (MIC), Strain 5-78): 4 µg/mL (≈ 5.45 µM)
MIC [3, 12]: < 1 µg/mL
MIC [7]: > 20 µg/mL

MIC [6, 13]: 32 µg/mL (≈ 84.1 µM)
MIC [6, 14]: 128 µg/mL (≈ 336 µM)
MIC [6, 15]: > 128 µg/mL
MIC [6, 16]: 32 µg/mL (≈ 84.1 µM)
MIC [6, 17]: 128 µg/mL (≈ 336 µM)
MIC [6, 18]: > 128 µg/mL
SMILES: COc1cccc(OC)c1C(=O)N[C@@H]1C(=O)N2[C@@H]1SC(C)(C)[C@@H]2C(=O)O [Methicillin]

SMILES: CO[C@@H]1[C@@H](OC(N)=O)[C@@H](O)[C@H](Oc2ccc3c(O)c(NC(=O)c4ccc(O)c(CC=C(C)C)c4)c(=O)oc3c2C)OC1(C)C [Novobiocin]
MIC [3, 12]: < 2 µg/mL
MIC [7]: > 20 µg/mL

MIC [3, 21]: 2 to 4 µg/mL (≈ 5.58 to 11.2 µM)
SMILES: CC(C)=CC[C@@H](OC(=O)C(C)C)C1=CC(=O)c2c(O)ccc(O)c2C1=O [Peak V, Isobutyl shikonin]
zone of inhibition at 2000 µg/mL [1, 19]: 7 mm
zone of inhibition at 2000 µg/mL [2, 20]: 7 mm

SMILES: CC(C)=CCC(OC(=O)C=C(C)C)C1=CC(=O)c2c(O)ccc(O)c2C1=O (stereo not drawn) [Peak VI, β, β-dimethylacryl shikonin]
zone of inhibition at 2000 µg/mL [1, 19]: 7 mm
zone of inhibition at 2000 µg/mL [2, 20]: 7 mm
MIC [3, 21]: < 2 µg/mL
activity ranking among the individual components (MIC) [3, 8]: the most active

SMILES: CC1(C)S[C@@H]2[C@H](NC(=O)Cc3ccccc3)C(=O)N2[C@H]1C(=O)O [Penicillin G]
MIC ([6]; read-out: Antibiotic Resistance (MIC), Strain 6515): > 20 µg/mL

MIC [6, 13]: 32 µg/mL (≈ 61.8 µM)
MIC [6, 14]: 128 µg/mL (≈ 247 µM)
MIC ([6]; Strain 4-15, read-out: Antibiotic Resistance (MIC)): 32 µg/mL (≈ 61.8 µM)
MIC ([6]; Strain 4-44, read-out: Antibiotic Resistance (MIC)): > 128 µg/mL
MIC ([6]; Strain 4-50, read-out: Antibiotic Resistance (MIC)): 32 µg/mL (≈ 61.8 µM)
MIC [6, 15]: > 128 µg/mL
MIC [6, 16]: 32 µg/mL (≈ 61.8 µM)
MIC [6, 17]: 128 µg/mL (≈ 247 µM)
MIC [6, 18]: > 128 µg/mL
SMILES: CCN1CCN(C(=O)N[C@@H](C(=O)N[C@@H]2C(=O)N3[C@@H]2SC(C)(C)[C@@H]3C(=O)O)c2ccccc2)C(=O)C1=O [Piperacillin]

SMILES: CN(C)C1C(=O)C(C(N)=O)=C(O)C2(O)C(=O)C3=C(O)c4c(O)cccc4C(C)(O)C3CC12 (stereo not shown) [Tetracycline]
MIC [6, 11]: > 32 µg/mL
MIC ([6]; read-out: Antibiotic Resistance (MIC), Strain 1206): > 32 µg/mL
MIC [3, 12]: 1 to 2 µg/mL (≈ 2.25 to 4.5 µM)
MIC [7]: > 20 µg/mL

SMILES: CC(C)=CCCC1=CC(=O)c2c(O)ccc(O)c2C1=O [deoxyshikonin]
antimicrobial activity [4]: antimicrobial activity
anti-inflammatory activity [5]: anti-inflammatory activity
